# Measurements as given in patent publication US9499495B2, “Quinazolines and azaquinazolines as dual inhibitors of RAS/RAF/MEK/ERK and PI3K/AKT/PTEN/mTOR pathways” (Asana Biosciences, LLC, priority 2013, dated 2016).
# Columns and labels:
# [1] = system: pERK in A375 cells; test: In Cell Western (ICW) assay, pERK in A375 cells; assay type: cell-based; settings: Homo sapiens, A-375, 3 h treatment
# Method in brief: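 After a 3 h compound treatment at 37 °C, fixed RKO or A375 cells were probed for phospho-ERK1/2 (T202/Y204), phospho-S6RP or phospho-AKT T308 and detected with a Eu-tagged anti-rabbit antibody (ex 340/em 615 nm), with Hoechst signal as the cell-number correction. Inhibition was referenced to DMSO, and IC50 values came from sigmoidal dose-response curves.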
# [2] = molecular target: T1, B-RAFV600E (Homo sapiens, UniProt P15056, V600E); test: B-RAFV600E radiometric assay; assay type: biochemical; settings: read-out: Kinase assay B-Raf
# T1 construct: purchased Millipore, USA 14-557
# T1 sequence (P15056 416-766 V600E limits assumed): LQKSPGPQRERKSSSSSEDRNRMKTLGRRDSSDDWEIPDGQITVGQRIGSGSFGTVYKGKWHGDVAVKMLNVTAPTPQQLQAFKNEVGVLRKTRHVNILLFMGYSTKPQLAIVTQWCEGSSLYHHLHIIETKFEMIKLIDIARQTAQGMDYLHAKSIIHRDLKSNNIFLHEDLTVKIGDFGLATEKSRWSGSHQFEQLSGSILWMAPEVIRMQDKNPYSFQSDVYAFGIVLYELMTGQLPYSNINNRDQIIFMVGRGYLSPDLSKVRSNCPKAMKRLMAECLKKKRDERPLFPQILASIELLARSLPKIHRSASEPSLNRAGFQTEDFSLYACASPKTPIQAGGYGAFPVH
# Method in brief: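 B-RAFV600E was preincubated 45 min at rt with compound in 1% DMSO. MEK-K97M (0.5 μg), 5 μM final cold ATP and [γ-32P]ATP were then added for 2 h at rt. Phosphorylated MEK was captured on P81 paper and scintillation-counted; IC50 came from a sigmoidal dose-response fit.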
# [3] = molecular target: T2, mTOR kinase (Homo sapiens, UniProt P42345); test: mTOR kinase TR-FRET assay; assay type: biochemical
# T2 construct: purchased Millipore, US
# T2 sequence (P42345 1362-2549 limits assumed): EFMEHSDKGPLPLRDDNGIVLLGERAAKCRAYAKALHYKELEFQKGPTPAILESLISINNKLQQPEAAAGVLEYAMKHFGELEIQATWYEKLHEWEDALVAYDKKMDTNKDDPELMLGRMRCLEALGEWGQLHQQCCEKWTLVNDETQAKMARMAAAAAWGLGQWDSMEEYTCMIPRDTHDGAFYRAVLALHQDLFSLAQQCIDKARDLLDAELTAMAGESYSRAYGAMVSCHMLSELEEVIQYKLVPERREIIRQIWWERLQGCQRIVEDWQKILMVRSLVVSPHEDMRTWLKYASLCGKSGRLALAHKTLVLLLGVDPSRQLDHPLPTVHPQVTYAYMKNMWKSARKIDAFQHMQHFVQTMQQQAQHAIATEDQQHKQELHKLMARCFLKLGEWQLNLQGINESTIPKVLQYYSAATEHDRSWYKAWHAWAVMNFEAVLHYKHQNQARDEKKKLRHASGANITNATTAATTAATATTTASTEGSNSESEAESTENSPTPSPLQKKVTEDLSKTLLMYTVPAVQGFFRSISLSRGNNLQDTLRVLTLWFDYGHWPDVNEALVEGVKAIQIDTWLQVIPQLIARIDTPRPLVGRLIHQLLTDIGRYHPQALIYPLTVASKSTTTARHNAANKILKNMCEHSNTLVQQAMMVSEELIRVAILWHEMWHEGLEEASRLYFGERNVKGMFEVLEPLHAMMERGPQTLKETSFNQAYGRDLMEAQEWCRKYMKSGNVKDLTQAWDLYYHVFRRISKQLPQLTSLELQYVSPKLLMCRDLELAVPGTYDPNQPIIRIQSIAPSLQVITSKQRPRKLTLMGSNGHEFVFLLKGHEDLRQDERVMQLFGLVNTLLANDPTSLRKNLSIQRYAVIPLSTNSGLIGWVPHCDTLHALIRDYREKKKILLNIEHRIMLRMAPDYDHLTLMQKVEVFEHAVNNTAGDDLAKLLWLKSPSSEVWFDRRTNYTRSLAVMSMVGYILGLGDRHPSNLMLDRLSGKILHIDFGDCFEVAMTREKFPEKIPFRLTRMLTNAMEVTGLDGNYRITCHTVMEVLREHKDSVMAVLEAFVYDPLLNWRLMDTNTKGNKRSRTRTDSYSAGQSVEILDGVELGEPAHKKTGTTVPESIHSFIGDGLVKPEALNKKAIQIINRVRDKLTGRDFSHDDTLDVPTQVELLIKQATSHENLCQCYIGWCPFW
# Method in brief: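 TR-FRET with ULight-p70 S6K (Thr 389) peptide (50 nM) and 20 μM ATP in 50 mM HEPES pH 7.5, 1 mM EGTA, 3 mM MnCl2; compound pre-incubated with enzyme before substrate addition, reaction at rt, EDTA-stopped. Eu anti-phospho antibody read 665/615 nm; IC50 from sigmoidal dose-response fit.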
SMILES,IC50 [1] [µM],IC50 [2] [µM],IC50 [3] [µM]
"Nc1ncc(-c2nc(N3CCOCC3)c3nc(-c4cccc(NS(=O)(=O)c5cc(F)ccc5F)c4F)ccc3n2)cn1 [Example 93, N-(3-(2-(2-aminopyrimidin 5-yl)-4-morpholinopyrido[3,2-d]pyrimidin-6-yl)-2-fluorophenyl)-2,5-difluorobenzenesulfonamide]",0.1 to 1,0.001 to 0.1,0.1 to 1
"Nc1ccc(-c2nc(N3CCOCC3)c3nc(-c4cccc(NS(=O)(=O)c5c(F)cccc5F)c4F)ccc3n2)cn1 [Example 95, N-(3-(2-(6-aminopyridin-3-yl)-4-morpholinopyrido[3,2-d]pyrimidin-6-yl)-2-fluorophenyl)-2,6-difluorobenzenesulfonamide]",0.1 to 1,0.001 to 0.1,0.001 to 0.1
"Nc1cc(F)c(-c2nc(N3CCOCC3)c3nc(-c4cccc(NS(=O)(=O)CCCF)c4F)ccc3n2)cn1 [Example 102, N-(3-(2-(6-amino-4-fluoropyridin-3-yl)-4-morpholinopyrido[3,2-d]pyrimidin-6-yl)-2-fluorophenyl)-3-fluoropropane-1-sulfonamide]",0.1 to 1,0.001 to 0.1,0.001 to 0.1
"Nc1cc(C(F)(F)F)c(-c2nc(N3CCOCC3)c3nc(-c4cccc(NS(=O)(=O)c5c(F)cccc5F)c4F)ccc3n2)cn1 [Example 106, N-(3-(2-(6-amino-4-(trifluoromethyl)pyridin-3-yl)-4-morpholinopyrido[3,2-d]pyrimidin-6-yl)-2-fluorophenyl)-2,6-difluorobenzenesulfonamide]",1 to 10,0.001 to 0.1,0.001 to 0.1
"O=S(=O)(CCCF)Nc1cccc(-c2ccc3nc(-c4ccc(NCCCO)nc4)nc(N4CCOCC4)c3n2)c1F [Example 111, 3-fluoro-N-(2-fluoro-3-(2-(6-((3-hydroxypropyl)amino)pyridin-3-yl)-4-morpholinopyrido[3,2-d]pyrimidin-6-yl)phenyl)propane-1-sulfonamide]",0.1 to 1,0.001 to 0.1,0.001 to 0.1
"C[C@H]1COCCN1c1nc(-c2cnc(N)cc2F)nc2ccc(-c3cccc(NS(=O)(=O)CCCF)c3F)nc12 [Example 129, (S)-N-(3-(2-(6-amino-4-fluoropyridin-3-yl)-4-(3-methylmorpholino)pyrido[3,2-d]pyrimidin-6-yl)-2-fIuorophenyl)-3-fluoropropane-1-sulfonamide]",0.1 to 1,0.001 to 0.1,0.001 to 0.1
"COc1cc(-c2cccc(NS(=O)(=O)CCCF)c2F)cc2c(N3CCOC[C@H]3C)nc(-c3cnc(N)c(F)c3)nc12 [Example 134, (R)-N-(3-(2-(6-amino-5-fluoropyridin-3-yl)-8-methoxy-4-(3-methylmorpholino)quinazolin-6-yl)-2-fluorophenyl)-3-fluoropropane-1-sulfonamide]",0.001 to 0.1,0.001 to 0.1,0.001 to 0.1
"COc1cc(-c2cccc(NS(=O)(=O)CCCF)c2F)cc2c(N3CCOC[C@H]3C)nc(-c3cnc(N)cc3F)nc12 [Example 135, (R)-N-(3-(2-(6-amino-4-fluoropyridin-3-yl)-8-methoxy-4-(3-methylmorpholino)quinazolin-6-yl)-2-fluorophenyl)-3-fluoropropane-1-sulfonamide]",0.001 to 0.1,0.001 to 0.1,0.001 to 0.1

# Other lines, results leading:
IC50 [1] [µM],IC50 [2] [µM],IC50 [3] [µM],SMILES
0.001 to 0.1,0.001 to 0.1,0.001 to 0.1,"Nc1cc(C(F)(F)F)c(-c2nc(N3CCOCC3)c3nc(-c4cccc(NS(=O)(=O)CCCF)c4F)ccc3n2)cn1 [Example 94, N-(3-(2-(6-amino-4-(trifluoromethyl)pyridin-3-yl)-4-morpholinopyrido[3,2-d]pyrimidin-6-yl)-2-fluorophenyl)-3-fluoropropane-1-sulfonamide]"
0.001 to 0.1,0.001 to 0.1,0.1 to 1,"C[C@@H]1COCCN1c1nc(-c2ccc(N)nc2)nc2ccc(-c3cccc(NS(=O)(=O)CCCF)c3F)nc12 [Example 96, (R)-N-(3-(2-(6-aminopyridin-3-yl)-4-(3-methylmorpholino)pyrido[3,2-d]pyrimidin-6-yl)-2-fluorophenyl)-3-fluoropropane-1-sulfonamide]"
0.001 to 0.1,0.001 to 0.1,0.1 to 1,"C[C@@H]1COCCN1c1nc(-c2cnc(N)nc2)nc2ccc(-c3cccc(NS(=O)(=O)CCCF)c3F)nc12 [Example 97, (R)-N-(3-(2-(2-aminopyrimidin-5-yl)-4-(3-methylmorpholino)pyrido[3,2-d]pyrimidin-6-yl)-2-fluorophenyl)-3-fluoropropane-1-sulfonamide]"
0.001 to 0.1,0.001 to 0.1,0.001 to 0.1,"O=S(=O)(CCCF)Nc1cccc(-c2ccc3nc(-c4ccc(NCCO)nc4)nc(N4CCOCC4)c3n2)c1F [Example 99, 3-fluoro-N-(2-fluoro-3-(2-(6-((2-hydroxyethyl)amino)pyridin-3-yl)-4-morpholinopyrido[3,2-d]pyrimidin-6-yl)phenyl)propane-1-sulfonamide]"
0.001 to 0.1,0.001 to 0.1,0.1 to 1,"Cc1cc(N)ncc1-c1nc(N2CCOCC2)c2nc(-c3cccc(NS(=O)(=O)CCCF)c3F)ccc2n1 [Example 101, N-(3-(2-(6-amino-4-methylpyrtdin-3-yl)-4-morpholinopyrldo[3,2-d]pyrimidin-6-yl)-2-fluorophenyl)-3-fluoropropane-1-sulfonamide]"
0.001 to 0.1,0.001 to 0.1,0.1 to 1,"C[C@H]1COCCN1c1nc(-c2cnc(N)cc2C(F)(F)F)nc2ccc(-c3cccc(NS(=O)(=O)CCCF)c3F)nc12 [Example 108, (S)-N-(3-(2-(6-amino-4-(trifluoromethyl)pyrldin-3-yl)-4-(3-methylmorpholino)pyrido[3,2-d]pyrimidin-6-yl)-2-fluorophenyl)-3-fluoropropane-1-sulfonamide]"
0.001 to 0.1,0.001 to 0.1,0.001 to 0.1,"CNc1ccc(-c2nc(N3CCOCC3)c3nc(-c4cccc(NS(=O)(=O)CCCF)c4F)ccc3n2)cn1 [Example 113, 3-fluoro-N-(2-fluoro-3-(2-(6-(methylamino)pyridin-3-yl)-4-morpholinopyrido[3,2-d]pyrimidin-6-yl)phenyl)propane-1-sulfonamide]"
0.001 to 0.1,0.001 to 0.1,0.1 to 1,"Cc1cc(-c2cccc(NS(=O)(=O)CCCF)c2F)cc2c(N3CCOCC3)nc(-c3cnc(N)nc3)nc12 [Example 116, N-(3-(2-(2-aminopyrimidin-5-yl)-8-methyl-4-morpholinoquinazolin-6-yl)-2-fluorophenyl)-3-fluoropropane-1-sulfonamide]"
